molecular target: T1, Recombinant (1-346) HPK1 (h) (Homo sapiens, UniProt Q92918); assay: HPK1 Human STE Kinase Enzymatic Radiometric Assay; format: biochemical; details: read-out: HPK1 IC50 nM Range*
T1 construct: Recombinant (1-346) HPK1 (h) is incubated with 8 mM MOPS pH 7.0
T1 sequence (Q92918 1-346): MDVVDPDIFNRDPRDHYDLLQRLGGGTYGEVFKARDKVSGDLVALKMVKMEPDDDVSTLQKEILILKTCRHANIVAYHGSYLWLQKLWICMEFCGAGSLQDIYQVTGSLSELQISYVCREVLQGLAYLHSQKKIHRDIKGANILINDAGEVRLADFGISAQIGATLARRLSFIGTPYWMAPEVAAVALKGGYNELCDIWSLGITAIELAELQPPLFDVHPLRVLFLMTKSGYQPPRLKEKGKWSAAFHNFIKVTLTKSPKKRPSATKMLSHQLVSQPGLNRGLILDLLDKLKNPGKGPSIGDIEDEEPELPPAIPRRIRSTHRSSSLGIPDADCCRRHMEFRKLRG
Procedure: A stock solution of 10 mM of test compound is prepared in DMSO. The compound plate was prepared by 3-fold and 9-point serial dilutions. […] The reaction is initiated by The addition of the Mg/ATP mix. After incubation for 40 minutes at RT, the reaction is stopped by the addition of phosphoric acid to a concentration of 0.5%.

`CN(Cc1cc(-c2cc(-c3cc4c(cc3F)C(=O)NCC4)c(N)nc2F)ccc1N1CCOCC1)CC1CCCO1` (stereo not shown) [I-619, 6-(2-amino-6-fluoro-5-(3-((methyl((tetrahydrofuran-2-yl)methyl)amino)methyl)-4-morpholinophenyl)pyridin-3-yl)-7-fluoro-3,4-dihydroisoquinolin-1(2H)-one] and `CN(C)Cc1cc(-c2cc(-c3ccc4c(c3)CCNC4=O)c(N)nc2F)c(F)cc1N1CCOCC1` [I-622, 6-(2-amino-5-(5-((dimethylamino)methyl)-2-fluoro-4-morpholinophenyl)-6-fluoropyridin-3-yl)-3,4-dihydroisoquinolin-1(2H)-one] fall in the same range of IC50: 11 to 100 nM for the first, 11 to 100 nM for the second.

`CN(C)Cc1cc(-c2cc(-c3ccc4c(c3)CCNC4=O)c(N)nc2F)ccc1C1CCOC1` (stereo not shown) [I-620, 6-(2-amino-5-(3-((dimethylamino)methyl)-4-(tetrahydrofuran-3-yl)phenyl)-6-fluoropyridin-3-yl)-3,4-dihydroisoquinolin-1(2H)-one] and `CN(C)Cc1cc(-c2cc(-c3ccc4c(c3)CCNC4=O)c(N)nc2F)ccc1C1CCOCC1` [I-645, 6-(2-amino-5-(3-((dimethylamino)methyl)-4-(tetrahydro-2H-pyran-4-yl)phenyl)-6-fluoropyridin-3-y)-3,4-dihydroisoquinolin-1(2H)-one] fall in the same range of IC50: 0.1 to 10 nM for the first, 0.1 to 10 nM for the second.

`CN(C)Cc1cc(-c2cc(-c3cc4c(cc3F)C(=O)NCC4)c(N)nc2F)ccc1C1CCOC1` (stereo not shown) [I-621, 6-(2-amino-5-(3-((dimethylamino)methyl)-4-(tetrahydrofuran-3-yl)phenyl)-6-fluoropyridin-3-yl)-7-fluoro-3,4-dihydroisoquinolin-1(2H)-one] and `CN(C)Cc1cc(-c2cc(-c3ccc4c(c3)CCNC4=O)c(N)nc2F)c(F)c(F)c1N1CCOCC1` [I-623, 6-(2-amino-5-(5-((dimethylamino)methyl)-2,3-difluoro-4-morpholinophenyl)-6-fluoropyridin-3-yl)-3,4-dihydroisoquinolin-1(2H)-one] fall in the same range of IC50: 11 to 100 nM for the first, 11 to 100 nM for the second.

First: CC(c1cc(-c2cc(-c3ccc4c(c3)CCNC4=O)c(N)nc2F)ccc1O)N(C)C (stereo not shown) [I-624, 6-(2-amino-5-(3-(1-(dimethylamino)ethyl)-4-hydroxyphenyl)-6-fluoropyridin-3-yl)-3,4-dihydroisoquinolin-1(2H)-one]
Second: CC(C)(N)c1cc(-c2cc(-c3ccc4c(c3)CCNC4=O)c(N)nc2F)ccc1F [I-625, 6-(2-amino-5-(3-(2-aminopropan-2-yl)-4-fluorophenyl)-6-fluoropyridin-3-yl)-3,4-dihydroisoquinolin-1(2H)-one]
The IC50 of the first is lower: 11 to 100 nM for the first, 101 to 1000 nM for the second.

`Cc1c[nH]c(=O)c2ccc(-c3cc(-c4ccc(F)c(CN(C)C)c4)c(F)nc3N)cc12` [I-626, 6-(2-amino-5-(3-((dimethylamino)methyl)-4-fluorophenyl)-6-fluoropyridin-3-yl)-4-methylisoquinolin-1(2H)-one] and `Cc1c[nH]c(=O)c2ccc(-c3cc(-c4cccc(CN(C)C)c4)c(F)nc3N)cc12` [I-627, 6-(2-amino-5-(3-((dimethylamino)methyl)phenyl)-6-fluoropyridin-3-yl)-4-methylisoquinolin-1(2H)-one] fall in the same range of IC50: 101 to 1000 nM for the first, 101 to 1000 nM for the second.

Compared with `Cc1c[nH]c(=O)c2ccc(-c3cc(-c4ccc5c(c4)[C@H](N(C)C)CCO5)c(F)nc3N)cc12` [I-628, (R)-6-(2-amnio-5-(4-(dimethylamino)chroman-6-yl)-6-fluoropyridin-3-yl)-4-methylisoquinolin-1(2H)-one], `Cc1c[nH]c(=O)c2ccc(-c3cc(-c4ccc5c(c4)[C@H](N(C)C)CO5)c(F)nc3N)cc12` [I-629, (S)-6-(2-amino-5-(3-(dimethylamino)-2,3-dihydrobenzofuran-5-yl)-6-fluoropyridin-3-yl)-4-methylisoquinolin-1(2H)-one] is higher in IC50: 11 to 100 nM for the first, 101 to 1000 nM for the second. The first is the more potent here.

`CN(C)[C@@H]1COc2ccc(-c3cc(-c4ccc5c(=O)[nH]cc(F)c5c4)c(N)nc3F)cc21` [I-630, (S)-6-(2-amino-5-(3-(dimethylamino)-2,3-dihydrobenzofuran-5-yl)-6-fluoropyridin-3-yl)-4-fluoroisoquinolin-1(2H)-one] and `CN(C)[C@@H]1CCOc2ccc(-c3cc(-c4ccc5c(=O)[nH]cc(F)c5c4)c(N)nc3F)cc21` [I-631, (R)-6-(2-amino-5-(4-(dimethylamino)chroman-6-yl)-6-fluoropyridin-3-yl)-4-fluoroisoquinolin-1(2H)-one] fall in the same range of IC50: 11 to 100 nM for the first, 11 to 100 nM for the second.

First: COc1ccc(-c2cc(-c3ccc4c(c3)CCNC4=O)c(N)nc2F)cc1C#N [I-632, 5-(6-amino-2-fluoro-5-(1-oxo-1,2,3,4-tetrahydroisoquinolin-6-yl)pyridin-3-yl)-2-methoxybenzonitrile]
Second: Nc1nc(F)c(-c2cccc([C@@H]3CCCN3)c2)cc1-c1ccc2c(c1)CCNC2=O [I-646, (S)-6-(2-amino-6-fluoro-5-(3-(pyrrolidin-2-yl)phenyl)pyridin-3-yl)-3,4-dihydroisoquinolin-1(2H)-one]
The IC50 of the first is higher: 11 to 100 nM for the first, 0.1 to 10 nM for the second.

`CCN(C)Cc1cc(-c2cc(-c3ccc4c(=O)[nH]cc(F)c4c3)c(N)nc2F)ccc1OC` [I-633, 6-(2-amino-5-(3-((ethyl(methyl)amino)methyl)-4-methoxyphenyl)-6-fluoropyridin-3-yl)-4-fluoroisoquinolin-1(2H)-one] and `CCN(C)Cc1cc(-c2cc(-c3ccc4c(=O)[nH]cc(C)c4c3)c(N)nc2F)ccc1OC` [I-634, 6-(2-amino-5-(3-((ethyl(methyl)amino)methyl)-4-methoxyphenyl)-6-fluoropyridin-3-yl)-4-methylisoquinolin-1(2H)-one] fall in the same range of IC50: 11 to 100 nM for the first, 11 to 100 nM for the second.

`Nc1nc(F)c(-c2ccc(N3CCN(CC4CC4)CC3)cc2)cc1-c1cc(F)c2c(c1)OCCNC2=O` [I-635, 8-(2-amino-5-(4-(4-(cyclopropylmethyl)piperazin-1-yl)phenyl)-6-fluoropyridin-3-yl)-6-fluoro-3,4-dihydrobenzo[f][1,4]oxazepin-5(2H)-one] and `CC(C)N1CCN(c2ccc(-c3cc(-c4cc(F)c5c(c4)OCCNC5=O)c(N)nc3F)cc2)CC1` [I-636, 8-(2-amino-6-fluoro-5-(4-(4-isopropylpiperazin-1-yl)phenyl)pyridin-3-yl)-6-fluoro-3,4-dihydrobenzo[f][1,4]oxazepin-5(2H)-one] fall in the same range of IC50: 0.1 to 10 nM for the first, 0.1 to 10 nM for the second.

Compared with `CC(C)N1CCN(c2ccc(-c3cc(-c4cc(F)c5c(c4)CNC5=O)c(N)nc3F)cc2)CC1` [I-637, 5-(2-amino-6-fluoro-5-(4-(4-isopropylpiperazin-1-yl)phenyl)pyridin-3-yl)-7-fluoroisoindolin-1-one], `Nc1nc(F)c(-c2ccc(N3CCN(CCCC(F)F)CC3)cc2)cc1-c1ccc2c(c1)CCNC2=O` [I-641, 6-(2-amino-5-(4-(4-(4,4-difluorobutyl)piperazin-1-yl)phenyl)-6-fluoropyridin-3-yl)-3,4-dihydroisoquinolin-1(2H)-one] is lower in IC50: 11 to 100 nM for the first, 0.1 to 10 nM for the second.

First: Cn1cnnc1CC1(c2cccc(-c3cc(-c4ccc5c(c4)CCNC5=O)c(N)nc3F)c2)COC1 [I-638, 6-(2-amino-6-fluoro-5-(3-(3-((4-methyl-4H-1,2,4-triazol-3-yl)methyl)oxetan-3-yl)phenyl)pyridin-3-yl)-3,4-dihydroisoquinolin-1(2H)-one]
Second: CN1CCC[C@H]1c1cc(-c2cc(-c3ccc4c(c3)CCNC4=O)c(N)nc2F)ccc1C1CCOCC1 [I-642, (S)-6-(2-amino-6-fluoro-5-(3-(1-methylpyrrolidin-2-yl)-4-(tetrahydro-2H-pyran-4-yl)phenyl)pyridin-3-yl)-3,4-dihydroisoquinolin-1(2H)-one]
The IC50 of the first is higher: 101 to 1000 nM for the first, 11 to 100 nM for the second. The second is the more potent here.

First: CC(C)N1CCN(c2ccc(-c3ccc(Nc4ccc5c(c4)CCNC5=O)nc3F)cc2)CC1 [I-639, 6-((6-fluoro-5-(4-(4-isoproylpiperazin-1-yl)phenyl)pyridin-2-yl)amino)-3,4-dihydroisoquinolin-1(2H)-one]
Second: Nc1nc(F)c(-c2ccc(N3CCN(CC4CC4(F)F)CC3)cc2)cc1-c1ccc2c(c1)CCNC2=O (stereo not shown) [I-640, 6-(2-amino-5-(4-(4-((2,2-difluorocyclopropyl)methyl)piperazin-1-yl)phenyl)-6-fluoropyridin-3-yl)-3,4-dihydroisoquinolin-1(2H)-one]
The IC50 of the first is higher: > 1000 nM for the first, 0.1 to 10 nM for the second.

First: Cc1nc2cc(-c3cc(-c4ccc(C5CCOCC5)c([C@@H]5CCCN5)c4)c(F)nc3N)ccc2c(=O)[nH]1 [I-643, (S)-7-(2-amino-6-fluoro-5-(3-(pyrrolidin-2-yl)-4-(tetrahydro-2H-pyran-4-yl)phenyl)pyridin-3-yl)-2-methylquinazolin-4(3H)-one]
Second: Nc1nc(F)c(-c2ccc(N3CCN(CCC4CC4(F)F)CC3)cc2)cc1-c1ccc2c(c1)CCNC2=O (stereo not shown) [I-644, 6-(2-amino-5-(4-(4-(2-(2,2-difluorocyclopropyl)ethyl)piperazin-1-yl)phenyl)-6-fluoropyridin-3-yl)-3,4-dihydroisoquinolin-1(2H)-one]
The IC50 of the first is higher: 11 to 100 nM for the first, 0.1 to 10 nM for the second. The second is the more potent here.
